Experimental data published in paper PMC3140574 (Journal of immunology (Baltimore, Md. : 1950), 2011).
pIC50: −log10 of the molar value. Where a SMILES comes first, the peptide text is derived from it.

Tests used:
[1] = target: HLA-A*0201 (Homo sapiens, UniProt P04439, D140Y/D185E/D98H/E176V/E277Q/G131W/G231S/I119V/I121R/I166T/I218V/L300P/L318F/N151K/N90K/P208A/P217A/Q86G/Q94H/R138H/R169H/T345S); experiment: HLA-A*0201-peptide binding
[2] = test system: splenocytes of ML1419c p113-121 immunized HLA-A2tg mice; assay type: cell-based

Row | Molecule | pIC50 [1] | IFN-γ [2] | IL-6 [2] | IP-10 [2] | MIG [2] | MIP-β [2] | TNF-α [2] | VEGF [2]
1 | CC(C)C[C@H](NC(=O)[C@@H](NC(=O)[C@@H](NC(=O)CNC(=O)[C@H](CC(=O)O)NC(=O)[C@H](CC(C)C)NC(=O)[C@@H](N)CCCNC(=N)N)[C@@H](C)O)[C@@H](C)O)C(=O)N[C@@H](CCC(=O)O)C(=O)N[C@H](C(=O)O)C(C)C [ML1419c p113-121, RLDGTTLEV] (H-RLDGTTLEV-OH) | 7.46 | – | – | – | – | – | – | –
2 | concanavalin A [conA] | – | 5112 pg/mL | 299 pg/mL | 251 pg/mL | 533 pg/mL | 787 pg/mL | 33 pg/mL | 83 pg/mL
